Format in all cases: physicochemical
Data set [1] is described as follows: Hygroscopicity test by Dynamic Vapour Sorption (DVS). As to conditions: for Water uptake: 25° C. The procedure: The apparatus is a “controlled atmosphere microbalance” where the weighed sample is exposed to programmed variations of the relative humidity (RH) at a constant and controlled temperature. The measured parameters (weight, time and RH), reported in Excel worksheets, allow obtaining hygroscopicity curves over the tested RH range. Sorption/desorption cycles between 0% and 90% RH can be performed at controlled temperature of 25° C. Progressive variations of RH are of 10%; they are operated by the software at the equilibration of the sample weight. This condition can be defined at a constant rate of percent weight variation e.g. 0.005%/min. The experimental results are reported both as in the DVS Isotherm Reports and Isotherm Plots.

Data set [2] in a line: Solid state stability on storage at stressed temperature and humidity. As to conditions: storage at 40° C./75% RH.
A short description of data set [3]: Solubility of compound 937 in early formulation vehicles / as in situ salt. As to conditions: aqueous with cosolvent or surfactant or cyclodextrin; in 10% polysorbate 80 in 5% dextrose solution.
A short description of data set [4]: Aqueous solubility of compound 937 salts and free base (excess solid stirred in water, filtered, HPLC). As to conditions: thermodynamic from solid, RT, stirred 4 hours, excess solid (target 10 mg/ml). The text has this: The obtained preparations have been filtered and analyzed by means of HPLC.

Data on six compounds can be found in US8648078B2, “PLK inhibitor salts” (Nerviano Medical Sciences S.R.L., priority 2009, dated 2014).

`CN1CCN(c2ccc(OC(F)(F)F)c(Nc3ncc4c(n3)-c3c(c(C(N)=O)nn3CCO)CC4)c2)CC1.O=C(O)C[C@H](O)C(=O)O` [compound 937 L-malate salt]: the “hygroscopicity (in words)” value in data set [1] is reported as “moderately hygroscopic”. In data set [1] (90% RH), the Water uptake result is on record as “about 4.7%”.
For `CN1CCN(c2ccc(OC(F)(F)F)c(Nc3ncc4c(n3)-c3c(c(C(N)=O)nn3CCO)CC4)c2)CC1.O=C(O)C(O)C(O)C(=O)O` [compound 937 L-tartrate salt], in that order: “moderately hygroscopic” and approximately 5.8%.
Regarding `CN1CCN(c2ccc(OC(F)(F)F)c(Nc3ncc4c(n3)-c3c(c(C(N)=O)nn3CCO)CC4)c2)CC1.O=C(O)/C=C/C(=O)O` [compound 937 fumarate salt], the Water uptake in data set [1] (90% RH) is recorded as 1.6%; in data set [1] (DVS sorption ramp, 0.0% RH), 0.0%; in data set [1] (DVS sorption ramp, 10.0% RH), 0.1%; in data set [1] (DVS sorption ramp, 20.0% RH) it was 0.3%; in data set [1] (DVS sorption ramp, 30.0% RH), 0.4%; in data set [1] (DVS sorption ramp, 40.0% RH), 0.6%. The Water uptake in data set [1] (DVS sorption ramp, 50.0% RH) is on record as 0.9%; in data set [1] (DVS sorption ramp, 60.0% RH) it was 1.2%; in data set [1] (DVS sorption ramp, 70.0% RH), 1.4%; in data set [1] (DVS sorption ramp, 80.0% RH), 1.5%.
In the case of `CN1CCN(c2ccc(OC(F)(F)F)c(Nc3ncc4c(n3)-c3c(c(C(N)=O)nn3CCO)CC4)c2)CC1.O=C(O)/C=C\C(=O)O` [compound 937 maleate salt form II], the “solid form stability (in words)” value in data set [2] is on record as “undergoes conversion to form I”. Besides, the “hygroscopicity (in words)” value in data set [1] is listed as “moderately hygroscopic”.
As for `CN1CCN(c2ccc(OC(F)(F)F)c(Nc3ncc4c(n3)-c3c(c(C(N)=O)nn3CCO)CC4)c2)CC1.O=C(O)CCC(=O)O` [compound 937 succinate salt form II], the “solid form stability (in words)” value in data set [2] was “stable”.
Regarding `CN1CCN(c2ccc(OC(F)(F)F)c(Nc3ncc4c(n3)-c3c(c(C(N)=O)nn3CCO)CC4)c2)CC1` [compound 937, 1-(2-hydroxy-ethyl)-8-[5-(4-methyl-piperazin-1-yl)-2-trifluoromethoxy-phenylamino]-4,5-dihydro-1H-pyrazolo[4,3-h]quinazoline-3-carboxamide], the solubility in data set [3] was approximately 4000 µg/mL. Moreover, the solubility at 4 h in data set [4] is less than 100 µg/mL.

Usually solubility stands for the concentration that dissolves in the medium under given conditions.
